In patent US20200181104A1, “SSAO INHIBITORS AND USES THEREOF” (METACRINE, INC., priority 2018, published 2020):

target: T1, Recombinant Human SSAO/VAP-1/AOC3 (Homo sapiens, UniProt Q16853); assay: Human Semicarbazide-Sensitive Amine Oxidase (SSAO) Assay; format: biochemical; conditions: recombinant enzyme, 30 minutes preincubation at 37° C., benzylamine substrate, Amplex Ultra Red/HRP fluorescence
T1 construct: purchased R&D systems 3957-AO
T1 sequence (Q16853 1-763): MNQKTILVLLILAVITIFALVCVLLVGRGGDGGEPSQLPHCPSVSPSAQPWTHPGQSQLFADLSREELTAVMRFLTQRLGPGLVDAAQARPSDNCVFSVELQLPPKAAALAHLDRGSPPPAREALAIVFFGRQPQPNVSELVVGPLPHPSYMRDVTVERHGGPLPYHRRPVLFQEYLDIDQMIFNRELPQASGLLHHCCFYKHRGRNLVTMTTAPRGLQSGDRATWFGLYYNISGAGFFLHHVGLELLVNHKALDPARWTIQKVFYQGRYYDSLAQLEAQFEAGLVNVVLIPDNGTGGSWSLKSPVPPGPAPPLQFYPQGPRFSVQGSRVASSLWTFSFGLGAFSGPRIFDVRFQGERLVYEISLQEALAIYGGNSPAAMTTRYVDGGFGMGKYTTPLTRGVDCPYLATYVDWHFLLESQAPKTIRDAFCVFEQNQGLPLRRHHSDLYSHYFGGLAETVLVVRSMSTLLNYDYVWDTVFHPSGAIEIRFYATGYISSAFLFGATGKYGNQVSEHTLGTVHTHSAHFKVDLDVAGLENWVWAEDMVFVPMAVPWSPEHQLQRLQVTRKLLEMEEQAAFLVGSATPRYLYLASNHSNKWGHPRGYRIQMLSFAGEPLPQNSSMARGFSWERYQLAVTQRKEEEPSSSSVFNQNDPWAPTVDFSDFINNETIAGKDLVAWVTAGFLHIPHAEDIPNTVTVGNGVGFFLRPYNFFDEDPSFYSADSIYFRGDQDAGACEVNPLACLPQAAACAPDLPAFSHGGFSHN
Method in brief: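 Recombinant human SSAO/VAP-1 (2.5 μg/ml working stock in 50 mM HEPES) preincubated with compound 30 min at 37 °C over a 6-10 point CRC. Benzylamine substrate starts the reaction. H2O2 read kinetically over 30-120 min via Amplex Ultra Red/HRP fluorescence (ex 544/em 590 nm) to derive IC50.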

| IC50 [nM] | SMILES |
| --- | --- |
| ≤ 10 | CO[C@@H](C)CNC(=O)C12CCC(c3ccc(OC/C(=C/F)CN)cc3)(CC1)CC2 [Compound 2.125, (S,E)-4-(4-((2-(aminomethyl)-3-3-fluoroallyl)oxy)phenyl)-N-(2-methoxypropyl)bicyclo[2.2.2] octane-1-carboxamide] |
| ≤ 10 | COC[C@H]1C[C@H](NC(=O)C23CCC(c4ccc(OC/C(=C/F)CN)cc4)(CC2)CC3)C1 [Compound 2.126, 4-(4-(((E)-2-(aminomethyl)-3-fluoroallyl)oxy)phenyl)-N-((1r,3r)-3-(methoxymethyl)cyclobutyl) bicyclo[2.2.2]octane-1-carboxamide] |
| ≤ 10 | COc1cccc(CNC(=O)C23CCC(c4ccc(OC/C(=C/F)CN)cc4)(CC2)CC3)c1 [Compound 2.127, (E)-4-(4-((2-(aminomethyl)-3-fluoroallyl)oxy)phenyl)-N-(3-methoxybenzyl)bicyclo[2.2.2] octane-1-carboxamide] |
| ≤ 10 | COc1ccccc1CNC(=O)C12CCC(c3ccc(OC/C(=C/F)CN)cc3)(CC1)CC2 [Compound 2.128, (E)-4-(4-((2-(aminomethyl)-3-fluoroallyl)oxy)phenyl)-N-(2-methoxybenzyl)bicyclo[2.2.2] octane-1-carboxamide] |
| ≤ 10 | NC/C(=C\F)COc1ccc(C23CCC(C(=O)NCc4cnccn4)(CC2)CC3)cc1 [Compound 2.129, (E)-4-(4-((2-(aminomethyl)-3-fluoroallyl)oxy)phenyl)-N-(pyrazin-2-ylmethyl)bicyclo[2.2.2]octane-1-carboxamide] |
| ≤ 10 | COc1cccc(CNC(=O)C23CCC(c4ccc(OC/C(=C/F)CN)cc4)(CC2)CC3)n1 [Compound 2.130, (E)-4-(4-((2-(aminomethyl)-3-fluoroallyl)oxy)phenyl)-N-((6-methoxypyridin-2-yl)methyl)bicyclo[2.2.2]octane-1-carboxamide] |
| ≤ 10 | NC/C(=C\F)COc1ccc(C23CCC(C(=O)NC4CCC5(CCOCC5)CC4)(CC2)CC3)cc1 [Compound 2.131, (E)-4-(4-((2-(aminomethyl)-3-fluoroallyl)oxy)phenyl)-N-(3-oxaspiro[5.5]undecan-9-yl)bicyclo[2.2.2]octane-1-carboxamide] |
| ≤ 10 | COCC(C)(C)CNC(=O)C12CCC(c3ccc(OC/C(=C/F)CN)cc3)(CC1)CC2 [Compound 2.132, (E)-4-(4-((2-(aminomethyl)-3-fluoroallyl)oxy)phenyl)-N-(3-methoxy-2,2-dimethylpropyl)bicyclo[2.2.2] octane-1-carboxamide] |
| ≤ 10 | CO[C@@H]1CCN(C(=O)C23CCC(c4ccc(OC/C(=C/F)CN)cc4)(CC2)CC3)C1 [Compound 2.133, (R,E)-(4-(4-((2-(aminomethyl)-3-fluoroallyl)oxy)phenyl)bicyclo[2.2.2]octan-1-yl)(3-methoxypyrrolidin-1-yl)methanone] |
| ≤ 10 | COc1cc(CNC(=O)C23CCC(c4ccc(OC/C(=C/F)CN)cc4)(CC2)CC3)ccn1 [Compound 2.134, (E)-4-(4-((2-(aminomethyl)-3-fluoroallyl)oxy)phenyl)-N-((2-methoxpyridin-4-yl)methyl)bicyclo[2.2.2]octane-1-carboxamide] |
| ≤ 10 | NC/C(=C\F)COc1ccc(C23CCC(C(=O)NC4CC(F)(F)C4)(CC2)CC3)cc1 [Compound 2.135, (E)-4-(4-((2-(aminomethyl)-3-fluoroallyl)oxy)phenyl)-N-(3,3-difluorocyclobutyl)bicyclo[2.2.2] octane-1-carboxamide] |
| ≤ 10 | CC1(C)CC(NC(=O)C23CCC(c4ccc(OC/C(=C/F)CN)cc4)(CC2)CC3)C1 [Compound 2.136, (E)-4-(4-((2-(aminomethyl)-3-fluoroallyl)oxy)phenyl)-N-(3,3-dimethylcyclobutyl)bicyclo [2.2.2]octane-1-carboxamide] |
| ≤ 10 | COc1ncccc1CNC(=O)C12CCC(c3ccc(OC/C(=C/F)CN)cc3)(CC1)CC2 [Compound 2.137, (E)-4-(4-((2-(aminomethyl)-3-fluoroallyl)oxy)phenyl)-N-((2-methoxypyridin-3-yl)methyl)bicyclo[2.2.2]octane-1-carboxamide] |
| ≤ 10 | COC(C)(C)CCNC(=O)C12CCC(c3ccc(OC/C(=C/F)CN)cc3)(CC1)CC2 [Compound 2.138, (E)-4-(4-((2-(aminomethyl)-3-fluoroallyl)oxy)phenyl)-N-(3-methoxy-3-methylbutyl)bicyclo[2.2.2] octane-1-carboxamide] |
| ≤ 10 | NC/C(=C\F)COc1ccc(C23CCC(C(=O)NCc4ccnnc4)(CC2)CC3)cc1 [Compound 2.139, (E)-4-(4-((2-(aminomethyl)-3-fluoroallyl)oxy)phenyl)-N-(pyridazin-4-ylmethyl)bicyclo[2.2.2]octane-1-carboxamide] |
| ≤ 10 | COc1nccc(CNC(=O)C23CCC(c4ccc(OC/C(=C/F)CN)cc4)(CC2)CC3)n1 [Compound 2.140, (E)-4-(4-((2-(aminomethyl)-3-fluoroallyl)oxy)phenyl)-N-((2-methoxypyrimidin-4-yl)methyl)bicyclo[2.2.2]octane-1-carboxamide] |
| ≤ 10 | COc1ccc(CNC(=O)C23CCC(c4ccc(OC/C(=C/F)CN)cc4)(CC2)CC3)cn1 [Compound 2.141, (E)-4-(4-((2-(aminomethyl)-3-fluoroallyl)oxy)phenyl)-N-((6-methoxpyridin-3-yl)methyl)bicyclo[2.2.2]octane-1-carboxamide] |
| ≤ 10 | NC/C(=C\F)COc1ccc(C23CCC(C(=O)N4CC5(CCCCO5)C4)(CC2)CC3)cc1 [Compound 2.143, (E)-(4-(4-((2-(aminomethyl)-3-fluoroallyl)oxy)phenyl)bicyclo [2.2.2]octan-1-yl)(5-oxa-2-azaspiro[3.5]nonan-2-yl)methanone] |
| ≤ 10 | COC1(CNC(=O)C23CCC(c4ccc(OC/C(=C/F)CN)cc4)(CC2)CC3)CC1 [Compound 2.144, (E)-4-(4-((2-(aminomethyl)-3-fluoroallyl)oxy)phenyl)-N-((1-methoxycyclopropyl)methyl) bicyclo[2.2.2]octane-1-carboxamide] |
| ≤ 10 | CO[C@H]1C[C@H](CNC(=O)C23CCC(c4ccc(OC/C(=C/F)CN)cc4)(CC2)CC3)C1 [Compound 2.145, 4-(4-(((E)-2-(aminomethyl)-3-fluoroallyl)oxy)phenyl)-N-(((1r,3r)-3-methoxycyclobutyl)methyl) bicyclo[2.2.2]octane-1-carboxamide] |
| ≤ 10 | CCOC1CC(NC(=O)C23CCC(c4ccc(OC/C(=C/F)CN)cc4)(CC2)CC3)C1 (stereo not drawn) [Compound 2.146, 4-(4-(((E)-2-(aminomethyl)-3-fluoroallyl)oxy)phenyl)-N-((1r,3r)-3-ethoxycyclobutyl)bicyclo[2.2.2] octane-1-carboxamide] |
| ≤ 10 | COC1(CCNC(=O)C23CCC(c4ccc(OC/C(=C/F)CN)cc4)(CC2)CC3)CCC1 [Compound 2.147, (E)-4-(4-((2-(aminomethyl)-3-fluoroallyl)oxy)phenyl)-N-(2-(1-methoxycyclobutyl)ethyl) bicyclo[2.2.2]octane-1-carboxamide] |
| ≤ 10 | CO[C@H]1C[C@H](CNC(=O)C23CCC(c4ccc(OC/C(=C/F)CN)cc4)(CC2)CC3)C1 [Compound 2.148, 4-(4-(((E)-2-(aminomethyl)-3-fluoroallyl)oxy)phenyl)-N-(((1s,3s)-3-methoxycyclobutyl)methyl) bicyclo[2.2.2]octane-1-carboxamide] |
| ≤ 10 | CCO[C@H]1C[C@@H](NC(=O)C23CCC(c4ccc(OC/C(=C/F)CN)cc4)(CC2)CC3)C1 [Compound 2.150, 4-(4-(((E)-2-(aminomethyl)-3-fluoroallyl)oxy)phenyl)-N-((1s,3s)-3-ethoxycyclobutyl)bicyclo[2.2.2] octane-1-carboxamide] |
| ≤ 10 | COCC1(CNC(=O)C23CCC(c4ccc(OC/C(=C/F)CN)cc4)(CC2)CC3)CC1 [Compound 2.151, (E)-4-(4-((2-(aminomethyl)-3-fluoroallyl)oxy)phenyl)-N-((1-(methoxymethyl)cyclopropyl)methyl)bicyclo[2.2.2]octane-1-carboxamide] |
| 10 to 100 | NC/C(=C\F)COc1ccc(C23CCC(C(=O)NC4(C(F)(F)F)CCOCC4)(CC2)CC3)cc1 [Compound 2.152, (E)-4-(4-((2-(aminomethyl)-3-fluoroallyl)oxy)phenyl)-N-(4-(trifluoromethyl)tetrahydro-2H-pyran-4-yl)bicyclo[2.2.2]octane-1-carboxamide] |
| ≤ 10 | CC1(C)CCC(NC(=O)C23CCC(c4ccc(OC/C(=C/F)CN)cc4)(CC2)CC3)CO1 (stereo not drawn) [Compound 2.153, (E)-4-(4-((2-(aminomethyl)-3-fluoroallyl)oxy)phenyl)-N-(6,6-dimethyltetrahydro-2H-pyran-3-yl)bicyclo[2.2.2]octane-1-carboxamide] |
